{"source": "paper PMC3438169", "about": "(PLoS ONE, 2012)", "key": {"[1]": {"system": "B. multivorans", "experiment": "Resistant mutant selection, B. multivorans", "type": "cell-based", "conditions": "Mueller-Hinton agar, 4 or 16 µg/ml argyrin B", "procedure": "Resistance frequencies were calculated as the number of CFU (mutants) on drug containing plates divided by the number of CFU plated. Whole genome sequencing was done as described previously. The fusA1 gene from P. aeruginosa was generated for sequencing in two parts, using primer pairs PAEFF1/PAEFR1: […]/[…] and EFF2/EFR1: […]/[…]. The fusA1 gene from B. multivorans was generated as a single band using BCEFGF1/BCEFGR1: […]/[…]. Nucleotide sequencing of the products was done by Agencourt (Beverly MA)."}, "[2]": {"system": "recombinant human mEF-G1 S452L", "experiment": "Biacore binding, human mEF-G1 S452L", "conditions": "10, 20, 40 µM, HBS-P+ pH 7.4, 4% DMSO", "description": "GFM1 encoding the active site of EF-G1 (residues 36–751) was PCR amplified from pDONR221 constructs using primers (GGGGACAAGTTTGTACAAAAAAGCAGGCTTAATGTCTTCATCAGGGGTGATT, GGGGACCACTTTGTACAAGAAAGCTGGGTATTAGTTCTTGGCTTTTCC). P. aeroginosa fusA1 encoding full-length EF-G was PCR amplified from pET28a-PaEFG-Nhis using primers (GGGGACCACTTTGTACAAGAAAGCTGGGTATTATCAACCTTGTTTTTT, GGGGACAAGTTTGTACAAAAAAGCAGGCTTAATGGCCCGTACTACACCC). Purified PCR products were cloned into the pDONR221 vector using Gateway cloning and BP Clonase II (Invitrogen), shuttled into an E.coli protein expression vector for N-terminal tagging (Avitag-His6 vector) using LR Clonase II (Invitrogen), and verified by sequencing. Avitag-His6-hEF-G1 and Avitag-His6-PaEF-G constructs were transformed into BL21-AI cells (Invitrogen) and isolated single colonies were used to inoculate 5 ml cultures which were grown overnight at 37°C with shaking. […]. Briefly, protein was captured on column using binding buffer (50 mM Tris; pH 7.5, 300 mM NaCl, 20 mM imidazole, 10% glycerol), washed extensively with washing buffer (50 mM Tris; pH 7.5, 500 mM NaCl, 30 mM imidazole, 10% glycerol), and then eluted with elution buffer (50 mM Tris; pH 7.5, 500 mM NaCl, 250 mM imidazole, 10% glycerol). […]"}}, "note": "*1 amine or outer side, *2 acyl side, *3 side chain or, on linkers, in order; H or OH if unused. Where a SMILES comes first, the peptide text is derived from it. [ ]: non-standard residue; d: D form. dAla(ψthiazole) = C[C@@H](N[*:1])c1nc(C(=O)[*:2])cs1; Trp(4-OMe) = COc1cccc2[nH]cc(C[C@H](N)C(=O)O)c12; dAbu = CC[C@@H](N)C(=O)O; Dha = C=C(N)C(=O)O; Sar = CNCC(=O)O"}
{"smiles": "C=C1NC(=O)CN(C)C(=O)CNC(=O)[C@H](Cc2c[nH]c3cccc(OC)c23)NC(=O)[C@H](Cc2c[nH]c3ccccc23)NC(=O)c2csc(n2)[C@@H](C)NC(=O)[C@@H](CC)NC1=O", "note": "[argyrin B] (cyclo([dAbu][dAla(ψthiazole)]W[Trp(4-OMe)]G[Sar][Dha]))", "values": [{"measurement": "frequency of argyrin B resistant mutants", "setting": "[1]", "result": "10^−9–10^−8"}, {"measurement": "Binding to human mEF-G1 (in words)", "setting": "[2]", "result": "still bound"}]}
